Among the data in patent publication US20220132847A1, “CINNOLINIUM COMPOUNDS FOR USE IN A METHOD OF CONTROLLING UNWANTED PLANT GROWTH” (SYNGENTA CROP PROTECTION AG, priority 2019, published 2022) are pest or weed control values, retold here.

Holding throughout (experiment): Post-emergence efficacy, glasshouse
Format in all cases: in vivo

The test system of one experiment is Eleusine indica (ELEIN). The settings on record: Eleusine indica, post-emergence, 312 h; Application Rate 1000 g/Ha; evaluated after 13 days; 100=total damage to plant, 0=no damage to plant; read-out: Control of weed species after post-emergence application, ELEIN. The procedure: (§1) Seeds of a variety of test species were sown in standard soil in pots. After cultivation for 14 days (post-emergence) under controlled conditions in a glasshouse (at 24/16° C., day/night; 14 hours light; 65% humidity), the plants were sprayed with an aqueous spray solution derived from the dissolution of the technical active ingredient formula (I) in a small amount of acetone and a special solvent and emulsifier mixture referred to as IF50 (11.12% Emulsogen EL360™+44.44% N-methylpyrrolidone+44.44% Dowanol DPM glycol ether), to create a 50 g/l solution which was then diluted to required concentration using 0.25% or 1% Empicol ESC70 (Sodium lauryl ether sulphate)+1% ammonium sulphate in water as diluent.
(§2) The test plants were then grown in a glasshouse under controlled conditions (at 24/16° C., day/night; 14 hours light; 65% humidity) and watered twice daily. After 13 days the test was evaluated (100=total damage to plant; 0=no damage to plant).
(§3) Ipomoea hederacea (IPOHE), Euphorbia heterophylla (EPHHL), Chenopodium album (CHEAL), Amaranthus palmeri (AMAPA), Lolium perenne (LOLPE), Digitaria sanguinalis (DIGSA), Eleusine indica (ELEIN), Echinochloa crus-galli (ECHCG), Setaria faberi (SETFA)

Experiment [1] deals with Amaranthus palmeri (AMAPA). The settings on record: Amaranthus palmeri, post-emergence, 312 h; Application Rate 1000 g/Ha; evaluated after 13 days; 100=total damage to plant, 0=no damage to plant; read-out: Control of weed species after post-emergence application, AMAPA. How it is done: as §1, §2, §3
In experiment [2] the test system is Digitaria sanguinalis (DIGSA). The conditions noted are these: Digitaria sanguinalis, post-emergence, 312 h; Application Rate 1000 g/Ha; evaluated after 13 days; 100=total damage to plant, 0=no damage to plant; read-out: Control of weed species after post-emergence application, DIGSA. The procedure: as §1, §2, §3
The test system of experiment [3] is Ipomoea hederacea (IPOHE). The settings on record: Ipomoea hederacea, post-emergence, 312 h; Application Rate 1000 g/Ha; evaluated after 13 days; 100=total damage to plant, 0=no damage to plant; read-out: Control of weed species after post-emergence application, IPOHE. The procedure:
as §1, §2, §3

The subject of experiment [4] is Echinochloa crus-galli (ECHCG). The settings on record: Echinochloa crus-galli, post-emergence, 312 h; Application Rate 1000 g/Ha; evaluated after 13 days; 100=total damage to plant, 0=no damage to plant; read-out: Control of weed species after post-emergence application, ECHCG. How it is done: as §1, §2, §3
For a further experiment, the system named is Lolium perenne (LOLPE). The conditions noted are these: Lolium perenne, post-emergence, 312 h; Application Rate 1000 g/Ha; evaluated after 13 days; 100=total damage to plant, 0=no damage to plant; read-out: Control of weed species after post-emergence application, LOLPE. The procedure: as §1, §2, §3
In experiment [5] the test system is Chenopodium album (CHEAL). The settings on record: Chenopodium album, post-emergence, 312 h; Application Rate 1000 g/Ha; evaluated after 13 days; 100=total damage to plant, 0=no damage to plant; read-out: Control of weed species after post-emergence application, CHEAL. How it is done:
as §1, §2, §3

The next experiment relates to Setaria faberi (SETFA). The conditions noted are these: Setaria faberi, post-emergence, 312 h; Application Rate 1000 g/Ha; evaluated after 13 days; 100=total damage to plant, 0=no damage to plant; read-out: Control of weed species after post-emergence application, SETFA. How it is done: as §1, §2, §3
Experiment [6] has as its system Euphorbia heterophylla (EPHHL). The settings on record: Euphorbia heterophylla, post-emergence, 312 h; Application Rate 1000 g/Ha; evaluated after 13 days; 100=total damage to plant, 0=no damage to plant; read-out: Control of weed species after post-emergence application, EPHHL. How it is done: as §1, §2, §3

As to `C[n+]1cc(SCC(=O)O)c2ccccc2n1` [Compound A57, 2-(2-methylcinnolin-2-ium-4-yl)sulfanylacetic acid chloride], the pest or weed control at 1000 g/ha in the experiment on Eleusine indica (ELEIN) stood at 40%; in experiment [1], 40%; in experiment [2], 30%; in experiment [3] it was 10%; in experiment [4] it was 10%; in the experiment with Lolium perenne (LOLPE), 10%. Also, the pest or weed control at 1000 g/ha was 40% in [5], 30% in the experiment on Setaria faberi (SETFA) and 20% in [6].
Turning to `O=P([O-])(O)c1c[n+](CCO)nc2ccccc12` [Compound A67, hydroxy-[2-(2-hydroxyethyl)cinnolin-2-ium-4-yl]phosphinate], the pest or weed control at 1000 g/ha worked out at 10% with Eleusine indica (ELEIN); 30% in [1]; 90% in [2]; 30% in [3]; 20% in experiment [4]; 0% with Lolium perenne (LOLPE). Besides, the pest or weed control at 1000 g/ha in experiment [5] worked out at 60%; with Setaria faberi (SETFA) it was 50%; in [6] it was 30%.
Regarding `COP(=O)([O-])c1c[n+](CCO)nc2ccccc12` [Compound A68, [2-(2-hydroxyethyl)cinnolin-2-ium-4-yl]-methoxy-phosphinate], the pest or weed control at 1000 g/ha in the experiment with Eleusine indica (ELEIN) is 100%; in [1], 100%; in [2], 100%; in [3], 100%; in [4], 60%; with Lolium perenne (LOLPE) it was 40%. The values for the pest or weed control at 1000 g/ha (in experiment [5]; in the experiment on Setaria faberi (SETFA); in experiment [6]) were 100%, 90% and 100%, respectively.
Regarding `C[n+]1cc(S(=O)(=O)[O-])c2ccccc2n1` [Compound A6, 2-methylcinnolin-2-ium-4-sulfonate], the pest or weed control at 1000 g/ha in the experiment with Eleusine indica (ELEIN) is 10%; in [1], 10%; in experiment [2] it was 10%; in experiment [3], 0%; in experiment [4], 10%; in the experiment with Lolium perenne (LOLPE) it was 10%. Besides, the pest or weed control at 1000 g/ha is 60% in experiment [5], 10% in the experiment on Setaria faberi (SETFA) and 60% in experiment [6].
Consider `CS(=O)(=O)[N-]C(=O)c1c[n+](CC(=O)NS(C)(=O)=O)nc2ccccc12` [Compound A13], for which the pest or weed control at 1000 g/ha with Eleusine indica (ELEIN) came out at 10%; in [1], 0%; in experiment [2], 10%; in experiment [3] it was 10%; in experiment [4], 10%; in the experiment on Lolium perenne (LOLPE), 10%. In addition, the pest or weed control at 1000 g/ha came out at 0% in [5], 10% in the experiment with Setaria faberi (SETFA) and 10% in experiment [6].
For `CC(C)P(=O)([O-])c1c[n+](C)nc2ccccc12` [Compound A46], the pest or weed control at 1000 g/ha was found to be 100% in the experiment on Eleusine indica (ELEIN); 100% in experiment [1]; 100% in experiment [2]; 100% in [3]; 90% in experiment [4]; 60% in the experiment with Lolium perenne (LOLPE). For the same compound, the pest or weed control at 1000 g/ha in experiment [5] came out at 100%; in the experiment with Setaria faberi (SETFA), 90%; in [6], 100%.
On to `C[n+]1cc(C(=O)[N-]S(=O)(=O)C(F)(F)F)c2ccccc2n1` [Compound A44], for which the pest or weed control at 1000 g/ha in the experiment on Eleusine indica (ELEIN) stood at 0%; in experiment [1], 80%; in experiment [2], 0%; in experiment [3] it was 20%; in experiment [4], 20%; with Lolium perenne (LOLPE) it was 0%. The results for the pest or weed control at 1000 g/ha (in experiment [5]; in the experiment on Setaria faberi (SETFA); in [6]) were 40%, 20% and 30%, respectively.
Take `CS(=O)(=O)[N-]C(=O)c1c[n+](CCO)nc2ccccc12` [Compound A21]: the pest or weed control at 1000 g/ha in the experiment on Eleusine indica (ELEIN) is 80%; in experiment [1], 90%; in experiment [2], 70%; in experiment [3], 80%; in [4] it was 50%; in the experiment on Lolium perenne (LOLPE), 60%. Further, the values for the pest or weed control at 1000 g/ha (in experiment [5]; in the experiment with Setaria faberi (SETFA); in experiment [6]) were 70%, 90% and 80%, respectively.
For the compound `C[n+]1cc(C(=O)[N-]S(=O)(=O)c2ccc(F)cc2)c2ccccc2n1` [Compound A38], the pest or weed control at 1000 g/ha in the experiment on Eleusine indica (ELEIN) was 90%; in [1], 60%; in experiment [2], 30%; in experiment [3], 20%; in experiment [4], 20%; with Lolium perenne (LOLPE), 0%. Also, the values for the pest or weed control at 1000 g/ha (in [5]; with Setaria faberi (SETFA); in experiment [6]) were 50%, 40% and 60%, respectively.
On to `CC(C)CP(=O)([O-])c1c[n+](C)nc2ccccc12` [Compound A45], for which the pest or weed control at 1000 g/ha was 100% in the experiment with Eleusine indica (ELEIN); 100% in experiment [1]; 90% in experiment [2]; 90% in experiment [3]; 70% in experiment [4]; 50% with Lolium perenne (LOLPE). In addition, the pest or weed control at 1000 g/ha in experiment [5] was found to be 90%; in the experiment on Setaria faberi (SETFA), 90%; in [6], 100%.
As to `C[n+]1cc(P(C)(=O)O)c2ccccc2n1` [Compound A7], the pest or weed control at 1000 g/ha in the experiment on Eleusine indica (ELEIN) is 80%; in experiment [3] it was 70%; in experiment [4], 70%; in the experiment on Lolium perenne (LOLPE), 40%; in [5], 100%; in the experiment with Setaria faberi (SETFA), 70%. Besides, the pest or weed control at 1000 g/ha in experiment [6] was 90%.
